From patent US8338480B2, “Combination treatment of metabolic disorders” (Wellstat Therapeutics Corporation, priority 2006, dated 2012)
Structures can show the parent of a compound that is named as a salt. Marks after values point to notes of the source that are not given here.

Key:
Type in all cases: in vivo
[1] = system: Male C57B1/6 mice; experiment: Food intake and body weight of male C57Bl/6 mice under restricted feeding (Example 3); settings: for Post-treatment Food Intake (5 Hour): 5 hour meal; for Change in Body weight % / Change in Body weight (grams ± SEM) / Post-treatment Body weight: restricted feeding
Procedure: Animals. […] Food was withheld for the remainder of each day. Because of the restricted feeding time, the mice eat less than under ad libitum food availability. Therefore, reduction of food intake in this model requires a drug effect sufficient to overcome the hunger stimulus provided by subnormal daily food intake. Drug Administration. Groups of 10 mice each (individually weighed and marked, divided into 5/cage and trained and monitored as above; were dosed once per day with Compound BI (100 mg/kg), rosiglitazone (3 mg/kg), both drugs, or vehicle by oral gavage at 8 AM for four consecutive days. Comparator groups receiving appetite modulators not suitable for oral dosing (PYY and cerulenin) received intraperitoneal injections at 8 AM for four consecutive days. […] [table]

[2] = system: Adiponectin; experiment: Serum adiponectin in db/db mice after two weeks (Example 4); settings: for Adiponectin ± SD: db/db mice serum
Text: Adiponectin is an glycoprotein secreted from white adipose tissue. Adiponectin improves insulin sensitive in other tissues, e.g. muscle and liver, and is also protective against atherosclerosis. Thiazolidinedione antidiabetic agents such as rosiglitazone or pioglitazone act largely via action at the PPAR-gamma, a nuclear receptor involved in regulation of fuel metabolism. PPAR-gamma agonists enhance adiponectin production by adipose tissue, and this may contribute to their beneficial effects in diabetes and related metabolic disorders.
(§1) • 8. Vehicle (1% hydroxypropylmethylcellulose) • 9. Compound BI 100 mg/kg • 10. Rosiglitazone (RSG) 3 mg/kg • 11. Compound BI 100 mg/kg+RSG 3 mg/kg • 12. Compound CF 100 mg/kg • 13. Compound CF 100 mg/kg+RSG 3 mg/kg • 14. Compound CT 100 mg/kg+RSG 3 mg/kg • 15. […]
(§2) After two weeks, blood samples were collected from the retro-orbital sinus and processed for serum chemistry measurements.

[3] = system: db/db mice; experiment: Serum glucose and triglycerides in db/db mice treated for 4 weeks (Example 2); settings: for Serum Glucose Mean / Serum Triglycerides Mean: 4 weeks oral gavage once per day
Procedure: (§3) Male db/db mice have a defect in the receptor for the appetite-regulating protein leptin and consequently develop hyperphagia, obesity, insulin resistance, hyperglycemia, hypertriglyceridemia. Male db/db mice are an accepted animal model for Type II diabetes. The effect of a range of single daily doses of orally administered Compound BI was assessed in this model, and the efficacy of rosiglitazone alone and in combination with Compound BI was also examined.
Male C57BL/Ksola db/db mice (“db/db mice”) were obtained from Harlan (Indianapolis, Ind.) and allowed to acclimate for a minimum of one week. […] Male C57BL/6 mice of the same age were used as lean nondiabetic controls.
(§4) Body weights and blood glucose levels were measured and animals were sorted groups of 6-7 mice with equivalent mean body weights in each group. […].
(§5) • 1. Lean Control (no treatment) • 2. Vehicle • 3. Compound BI 30 mg/kg/day • 4. Compound BI 100 mg/kg/day • 5. Compound BI 150 mg/kg/day • 6. Rosiglitazone 3 mg/kg • 7. Rosiglitazone 3 mg/kg+Compound BI 30 mg/kg • 8. Rosiglitazone 3 mg/kg+Compound BI 100 mg/kg • 9. Rosiglitazone 20 mg/kg • 10. Rosiglitazone 20 mg/kg+Compound BI 30 mg/kg • 11. Rosiglitazone 20 mg/kg+Compound BI 100 mg/kg
(§6) Drug preparation: Compound BI was suspended in a vehicle comprising 1% aqueous hydroxypropylmethylcellulose, using a tissue homogenizer to minimize particle size and maximize uniformity of the suspension. Rosiglitazone was suspended in the same vehicle. Drug concentrations in the dosing suspension for each treatment group were adjusted according to body weights so that a constant volume of 0.4 ml provided appropropriate drug doses in all groups.
(§7) Drug Administration: Drugs were administered orally by gavage once per day for 28 days.
Blood sampling: For serum chemistry analysis, nonfasting blood samples (200 microliters) were obtained via the retro-orbital sinus and collected in serum separator tubes at 11 AM on days 14 and 28 after initiation of drug administration.

[4] = system: db/db mice; experiment: Body weight and food consumption in db/db mice treated for 4 weeks (Example 2); settings: for Body Weight (grams) Mean ± SD 4 Weeks / Food Consumption Week 2 / Food Consumption Week 3 / Food Consumption Week 4 / Change in Body Weight (grams): db/db mice; for Change in Body Weight (grams): initial to 4 weeks
Procedure: as §3
Male C57BL/Ksola db/db mice (“db/db mice”) were obtained from Harlan (Indianapolis, Ind.) and allowed to acclimate for a minimum of one week. Animals received Purina 5008 Lab Diet and tap water ad libitum and were housed with 3-4 animals per cage. Male C57BL/6 mice of the same age were used as lean nondiabetic controls.
as §4, §5, §6, §7

[5] = system: db/db mice; experiment: Serum glucose in db/db mice treated for two weeks (Example 6); settings: for Glucose / Glucose (% Control): two weeks daily oral; for Glucose (% Control): vehicle = 100
Procedure: A minimum of 7 days was allowed for adaptation after arrival.
Treatment cohorts were given daily oral doses of vehicle, Compound BI (100 mg/kg/day), rosiglitazone (RSG; 3 mg/kg/day) or a combination of the two drugs for 2 weeks. At the end of the treatment period epididymal fat pads were excised, frozen and subsequently processed for measurement of UCP1 by Western Blot analysis. Blood samples were also collected prior to sacrifice via the retro-orbital plexus, and processed and analyzed for serum glucose (AniLytics, Inc.; Gaithersburg Md.).

[6] = system: db/db mice; experiment: Serum glucose in db/db mice after two weeks (Example 4)
Procedure: as §1, §2

[7] = Compound BI 100 mg/kg oral once per day
[8] = Rosiglitazone 3 mg/kg oral once per day

Cc1cccc(C)c1COc1cccc(C(=O)CCC(=O)O)c1 [Compound BI, 4-(3-(2,6-Dimethylbenzyloxy)phenyl)-4-oxobutyric acid]
Post-treatment Food Intake (5 Hour) [1, 7]: 2.00 ± 0.18 grams | Change in Body weight % [1, 7]: −1.90 ± 0.73% | Change in Body weight (grams ± SEM) [1, 7]: −0.40 ± 0.15 grams | Post-treatment Body weight [1, 7]: 20.57 ± 0.51 grams | Adiponectin ± SD ([2]; compound alone 100 mg/kg): 9.3 ± 4.8 micrograms/ml | effect on adiponectin with concurrent rosiglitazone (in words) ([2]; db/db mice, 100 mg/kg + RSG 3 mg/kg): strongly amplify the effect of concurrent rosiglitazone on adiponectin | serum adiponectin, individual agents (in words) ([2]; db/db mice, agent alone): did not elevate serum adiponectin levels | Serum Glucose Mean ([3]; Compound BI 30 mg/kg): 657.8 mg/dL | Serum Triglycerides Mean ([3]; Compound BI 30 mg/kg): 281.2* mg/dL | Serum Glucose Mean ([3]; Compound BI 100 mg/kg): 330.3* mg/dL | Serum Triglycerides Mean ([3]; Compound BI 100 mg/kg): 179.1* mg/dL | Serum Glucose Mean ([3]; Compound BI 150 mg/kg): 271.7* mg/dL | Serum Triglycerides Mean ([3]; Compound BI 150 mg/kg): 177.7* mg/dL | hyperglycemia, hypertriglyceridemia and free fatty acid levels (in words) ([3]; combination: rosiglitazone 3 mg/kg/day + Compound BI 30 mg/kg/day): dose-dependent attenuation of hyperglycemia, hypertriglyceridemia and free fatty acid levels | serum glucose (in words) ([3]; oral once per day for 28 days): dose dependent reduction of serum glucose | body weight and food intake (in words) ([4]; Compound BI 30 mg/kg, RSG 3 mg/kg, alone or combined): little effect on body weight and food intake | Body Weight (grams) Mean ± SD 4 Weeks ([4]; 4 Weeks oral once per day, Compound BI 30 mg/kg): 50.3 ± 2.1 grams | Body Weight (grams) Mean ± SD 4 Weeks ([4]; 4 Weeks oral once per day, Compound BI 150 mg/kg): 47.4 ± 2.7 grams | Body Weight (grams) Mean ± SD 4 Weeks ([4]; 4 weeks oral once per day, Compound BI 100 mg/kg): 47.8 ± 3.6 grams | Food Consumption Week 2 ([4]; Compound BI 30 mg/kg): 5.3 grams/24 hr/mouse | Food Consumption Week 2 ([4]; Compound BI 100 mg/kg): 3.6 grams/24 hr/mouse | Food Consumption Week 2 ([4]; Compound BI 150 mg/kg): 3.1 grams/24 hr/mouse | Food Consumption Week 3 ([4]; Compound BI 30 mg/kg): 4.9 grams/24 hr/mouse | Food Consumption Week 3 ([4]; Compound BI 100 mg/kg): 3.7 grams/24 hr/mouse | Food Consumption Week 3 ([4]; Compound BI 150 mg/kg): 4.1 grams/24 hr/mouse | Food Consumption Week 4 ([4]; Compound BI 30 mg/kg): 5.6 grams/24 hr/mouse | Food Consumption Week 4 ([4]; Compound BI 100 mg/kg): 5.1 grams/24 hr/mouse | Food Consumption Week 4 ([4]; Compound BI 150 mg/kg): 6 grams/24 hr/mouse | Change in Body Weight (grams) ([4]; Compound BI 30 mg/kg): +8.4 grams | Change in Body Weight (grams) ([4]; Compound BI 100 mg/kg): +6.3 grams | Change in Body Weight (grams) ([4]; Compound BI 150 mg/kg): +6.6 grams | serum glucose (in words) ([5]; 2 weeks, Compound BI 100 mg/kg/day, RSG 3 mg/kg/day, alone or combined): reduced serum glucose relative to vehicle treated control animals | Glucose ([5]; Cpd. BI 100 mg/kg): 302.0 ± 40.7 mg/dL | Glucose (% Control) ([5]; Cpd. BI 100 mg/kg): 44 ± 6 % Control | Glucose ± SD ([6]; compound alone 100 mg/kg): 206 ± 44 mg/dL

CN(CCOc1ccc(CC2SC(=O)NC2=O)cc1)c1ccccn1 (stereo not drawn) [RSG, rosiglitazone maleate, reference compound]
Post-treatment Food Intake (5 Hour) [1, 8]: 2.21 ± 0.15 grams | Change in Body weight % [1, 8]: −0.55 ± 0.44% | Change in Body weight (grams ± SEM) [1, 8]: −0.12 ± 0.09 grams | Post-treatment Body weight [1, 8]: 20.76 ± 0.39 grams | Adiponectin ± SD ([2]; RSG 3 mg/kg alone): 12.3 ± 3.0 micrograms/ml | Serum Glucose Mean ([3]; RSG 3 mg/kg): 382.8 mg/dL | Serum Triglycerides Mean ([3]; RSG 3 mg/kg): 99.2* mg/dL | Serum Glucose Mean ([3]; RSG 20 mg/kg): 344.7 mg/dL | Serum Triglycerides Mean ([3]; RSG 20 mg/kg): 117.3* mg/dL | Body Weight (grams) Mean ± SD 4 Weeks ([4]; 4 Weeks oral once per day, RSG 20 mg/kg): 51.4 ± 1.4 grams | Body Weight (grams) Mean ± SD 4 Weeks ([4]; 4 weeks oral once per day, RSG 3 mg/kg): 48.2 ± 2.6 grams | Food Consumption Week 2 ([4]; RSG 3 mg/kg): 5.3 grams/24 hr/mouse | Food Consumption Week 2 ([4]; RSG 20 mg/kg): 5.4 grams/24 hr/mouse | Food Consumption Week 3 ([4]; RSG 3 mg/kg): 4.0 grams/24 hr/mouse | Food Consumption Week 3 ([4]; RSG 20 mg/kg): 5.9 grams/24 hr/mouse | Food Consumption Week 4 ([4]; RSG 3 mg/kg): 4.8 grams/24 hr/mouse | Food Consumption Week 4 ([4]; RSG 20 mg/kg): 6.3 grams/24 hr/mouse | Change in Body Weight (grams) ([4]; RSG 3 mg/kg): +6.4 grams | Change in Body Weight (grams) ([4]; RSG 20 mg/kg): +10.3 grams | Glucose ([5]; RSG 3 mg/kg): 403.7 ± 28.0 mg/dL | Glucose (% Control) ([5]; RSG 3 mg/kg): 59 ± 4 % Control | Glucose ± SD ([6]; RSG 3 mg/kg alone): 258 ± 74 mg/dL
